For 86 compounds, melting point results are on record in a melting point compilation (Tetko et al.; mined from patent text by program, amines drawn as free bases though some values may be those of a salt).

Molecules are shown by their SMILES. Some results are limits rather than exact numbers.

In general, melting point refers to the temperature of the solid-liquid transition. Regarding `COC(=O)c1cc2c(cc1O)CCCC2`, the melting point is 41 to 42 °C.

`CN(N=Cc1ccc([N+](=O)[O-])cc1)C1=NOCc2ccc(Cl)cc21` came in with a melting point of 251 °C.

The compound `Nc1nc(C(=Cc2c(Cl)ccc(Cl)c2Cl)C(=O)O)cs1` had a melting point above 210 °C.

`CCOCC1=CC(=O)C=C2CCC3C4CCC(=O)C4(C)CCC3C21C` (stereo unspecified) came in with a melting point of 95 to 98 °C.

`COc1ccc2sc(C(=O)Nc3ccc(CC(=O)O)cc3)c(OC(C)C)c2c1` had a melting point of 196 °C.

On to `C[C@H](O)[C@@H](COc1ccc(Cl)c(Cl)c1)n1cnc(C(N)=O)c1`, for which the melting point lay in the range of 115 to 121 °C.

In turn, `FC(F)c1nc2ccccc2n1-c1nc(Sc2ccccc2)nc(N2CCOCC2)n1` gave a melting point of 245 to 248 °C.

With `S=C(NCc1ccccc1)Nc1ccc(NC(=S)NCc2ccccc2)cc1`, the melting point came out at 198 °C.

`CC(C)(C)c1cc(CN(c2cccnc2)S(=O)(=O)c2ccc([N+](=O)[O-])cc2)cc(C(C)(C)C)c1O`: the melting point lay in the range of 159 to 160 °C.

Take `CC(CNC(=O)OC(C)(C)C)C(=O)NC(CC(=O)OCc1ccccc1)C(N)=O` (mixture of isomers): the melting point was 135 to 136 °C.

The compound `Cc1c(C(F)(F)F)cc(Cl)c(-n2cnc(C(F)(F)F)cc2=O)c1Cl` yielded a melting point of 204 to 206 °C.

`CCOC(=O)c1ccc(N2CCN(C(=O)C=Cc3cc(C(C)(C)C)c(O)c(C(C)(C)C)c3)CC2)cc1` had a melting point of 147 to 150 °C.

In turn, `CNC(=O)N1CCc2cc(S(=O)(=O)N(C)OC)ccc21` returned a melting point of 152 °C.

The compound `COCc1ncc(Nc2ccc(Cl)cc2)nc1-n1nc(C)cc1C` had a melting point of 147 to 151 °C.

`CON(C(=O)C1=C(O)C(=O)N(C)C1)C(C)c1ccc(F)cc1` (stereo unspecified) yielded a melting point of 136 to 138 °C.

In the case of `CSC(=S)NCc1ccc([N+](=O)[O-])cc1`, the melting point was 106 to 107 °C.

As for `OCCn1c(NC2CCN(Cc3ccccc3)CC2)nc2cccnc21`, the melting point was determined as 126 °C.

`CCOC(=O)c1[nH]cc2c1NC1=C(C(=O)CCC1)C2c1cnc(Sc2nc3ccccc3[nH]2)s1` (stereo unspecified) registered a melting point of 194 °C.

For the compound `Cc1cccc2sc(-n3nc(CCC(=O)N(C)O)cc3-c3ccc(Cl)cc3)nc12`, the melting point is 156 to 158 °C.

In turn, `CC(=O)OC1CC2=CCC3C(CCC4(C)C(C(C)CCCC(C)C)CCC34)C2(C)CC1F` (stereo unspecified) returned a melting point of 116 to 119 °C.

In turn, `COc1cc2ncc(C#N)c(Nc3ccc4[nH]c(=O)sc4c3)c2cc1OC` had a melting point of 285 to 287 °C.

As for `COc1ccc(OC)c(C(=O)c2cc3ccc(OC)cc3o2)c1`, the melting point lay in the range of 129 to 131 °C.

Compound `CCOC(=O)C(C)(C)CCCCCOc1ccc(-c2csc(NC(=O)NC3CCCCC3)n2)cc1` registered a melting point of 106 to 108 °C.

Regarding `CCCC[C@H](C)CC(=O)N[C@H](CCC(=O)N[C@@H](C)C(=O)N[C@H](C)C(=O)O)C(=O)O`, the melting point lay within 165 to 168 °C.

As for `CC(C)(C)OC(=O)NNC(=O)c1ccc(O)c(O)c1`, the melting point turned out to be 148 °C.

Turning to `CC(C)(N)CNCCCCCCNCC(C)(C)N`, the melting point lay in the range of 25 to 35 °C.

`COc1cc(C(C#Cc2cnc(N)nc2N)OC)cc(OC)c1OC` (stereo unspecified) displayed a melting point of 184 to 186 °C.

The compound `CC(C)(C)c1ccc(-c2ccc(N3CCCN(c4ccc(-c5ccc(C(C)(C)C)cc5)cn4)CC3)nc2)cc1` gave a melting point of 268 to 270 °C.

Compound `CC1=CC(OC(=O)c2ccc(N(C)C)cc2)C(O)C(C)(C)CC1=O` (stereo unspecified) returned a melting point of 162 to 163 °C.

For `CCN1C(=O)C(NC(=O)C(F)(F)F)CCc2c1ccc(Nc1ncc(Cl)c(Nc3ccccc3S(=O)(=O)C(C)C)n1)c2OC` (stereo unspecified), the melting point lay within 245 to 247 °C.

As to `CC(C)NC(=O)CC(=O)C=Cc1ccccc1[N+](=O)[O-]`, the melting point fell in the range of 132 to 135 °C.

The compound `COC(=O)c1cccc(-c2nc(COc3ccc(C=O)cc3OC)c(C)o2)c1` displayed a melting point of 168 to 169 °C.

Take `CON(c1ccc([N+](=O)[O-])cc1[N+](=O)[O-])S(=O)(=O)c1cccc(C)c1`: the melting point lay within 148 to 150 °C.

Take `CN1C2C=C(c3ccc(Cl)c(Cl)c3)CC1CC2` (stereo unspecified): the melting point lay within 44 to 52 °C.

Compound `CCOC(=O)C(=O)Nc1coc2ccccc2c1=O` gave a melting point of 146 to 148 °C.

With `CCOC(=O)C1=C(Cl)/C(=N/OS(C)(=O)=O)CC(c2ccc(Cl)c(OC)c2F)N1` (stereo unspecified), the melting point fell in the range of 60 to 62 °C.

Consider `c1ccc(-c2nn3ccccc3c2-c2ccnnc2)cc1`, for which the melting point is 204 to 205 °C.

Compound `Nc1ccccc1CNC(=O)C1Cc2ccccc2N1S(=O)(=O)c1ccc(-c2ccc(F)cc2F)cc1` (stereo unspecified) returned a melting point of 93 to 96 °C.

On to `CCCCc1nc2c(N)nc3cc(OCc4ccccc4)ccc3c2n1CCOc1ccccc1`, for which the melting point was 188 to 189 °C.

`CCCC#Cc1ccnc2c1c(C(C)=O)cn2S(=O)(=O)c1ccccc1` came in with a melting point of 134 to 136 °C.

As for `CC(C)c1ccc(S(=O)(=O)c2ccccc2)cc1S(=O)(=O)NC1CCN(C(=O)c2ccc(C(C)(C)C)cc2)CC1`, the melting point lay within 150 to 152 °C.

Compound `O=C(CCC(=O)Oc1cc(O)cc(O)c1)Oc1cc(O)cc(O)c1` displayed a melting point of 213 to 217 °C.

`C[Si]1(C)CCCCCCCCCC[Si](C)(C)O[Si](C)(C)CCCCCCCCCC[Si](C)(C)O1` had a melting point of 90 °C.

`O=C(NCc1ccc2c(c1)OCO2)c1ccc2[nH]c(=O)n(Cc3cccs3)c(=O)c2c1`: the melting point was found to be 270 °C.

The compound `O=C(NO)c1ccc2c(c1)CCN(C(=O)C1CC1)C2` showed a melting point of 90 °C.

For the compound `C[C@]1(COc2ccc(N3CCN(CC=Cc4ccc(Cl)c(Cl)c4)CC3)cc2)Cn2cc([N+](=O)[O-])nc2O1`, the melting point fell in the range of 205 to 206 °C.

In turn, `COC(=O)c1cc(-c2cccc(C(F)(F)F)c2)c(=O)n2c1-c1sccc1SCC2` yielded a melting point of 190 to 191 °C.

Take `O=S(=O)(Nc1cc(F)ccc1F)c1ccccc1`: the melting point is 115 °C.

Compound `CCOC(=NC(=O)OC)NC(=O)Nc1cc(C(=O)OC)c(Cl)cc1F` registered a melting point of 105 to 107 °C.

On to `CC(C)Cn1cc(F)c(=O)[nH]c1=O`, for which the melting point is 173 to 174 °C.

`NS(=O)(=O)c1cc(C(=O)O)cc(SCc2ccccc2)c1Cl`: the melting point was in the range of 241 to 242 °C.

`CSC(=C[N+](=O)[O-])NCCCn1cc(C2=C(c3cn(C)c4ccccc34)C(=O)NC2=O)c2ccccc21` returned a melting point of 144 to 146 °C.

Regarding `O=c1[nH]ncc2[nH]c(-c3ccc(OC(F)F)c(OC4CC4)c3)c(CO)c12`, the melting point was in the range of 190 to 191 °C.

`COc1ccc(C(=O)Nc2ccc(N3CCC(NC[C@H](O)COc4ccc(O)cc4)CC3)cc2)cc1OC` registered a melting point of 77 to 84 °C.

As to `Cc1cc(NC(=O)c2c(Cl)cccc2Cl)c2nccc(Cl)c2c1C`, the melting point was 190 to 193 °C.

On to `CC(C)C(=O)Oc1ccc2c(c1)OCN(CCO[N+](=O)[O-])C2=O`, for which the melting point was 70 to 71 °C.

`COC(=O)c1cccc(/C=C/c2cc3ccccc3o2)c1` gave a melting point of 98 to 100 °C.

Consider `NNC(=O)CCCCC(=O)N(NC(=O)c1ccccc1O)C(=O)c1ccccc1O`, for which the melting point came to 252 °C.

As to `COc1ccc(S(=O)(=O)C2(C(=O)NO)CCN(C3CCCCCCC3)CC2)cc1`, the melting point was above 200 °C.

For the compound `COC(=O)c1ccc(C(=O)OC)c(S(=O)(=O)NC(C)(C)C)c1`, the melting point lay within 132 to 134 °C.

Consider `C[C@H](NC(=O)c1c(F)cccc1[N+](=O)[O-])C(=O)O`, for which the melting point lay within 142 to 144 °C.

For the compound `NC1=NN(c2ccccc2)C(c2ccc(Cl)cc2)C1` (stereo unspecified), the melting point was in the range of 184 to 186 °C.

In turn, `O=c1c2ccccc2ncn1-c1nnn[nH]1` gave a melting point of 259 to 260 °C.

Consider `COc1coc2ccc(OCCCCCCN3CCC(O)CC3)cc2c1=O`, for which the melting point was 124 to 125 °C.

The compound `COc1ccc(Cn2nc3oc(=O)cc(C)c3c2C)cc1` registered a melting point of 169 to 172 °C.

As for `CCCCOc1c(CNC(=O)OC(C)(C)C)n(CC(C)C)c(=O)c2ccc(-c3ccco3)cc12`, the melting point lay within 157 to 158 °C.

Consider `CC(C)C(=O)NCCCCn1c(CO)nc2c(N)nc3ccccc3c21`, for which the melting point was 222 to 224 °C.

`CN(CCO)Cc1cc(NC(=N)c2cccs2)ccc1C1CCCC1` returned a melting point of 116 to 118 °C.

For the compound `COC(=O)NNc1ccc(C)c2c1OC(C)C2` (stereo unspecified), the melting point was in the range of 62 to 65 °C.

Take `COc1ccc(-n2nc(CCC(=O)NO)cc2-c2ccc(Cl)cc2)cc1`: the melting point fell in the range of 154 to 156 °C.

As to `COC(=O)c1cc2cc(OC(F)(F)F)ccc2[nH]1`, the melting point came out at 129 °C.

`CCc1c(-c2ccc(OC)cc2)c2c(C(=O)O)c(C(=O)O)c3cc(OC)cc1n32` yielded a melting point of 209 to 211 °C.

The compound `COC(=O)c1ccc2c(c1)N(C1CC1)C=NS2(=O)=O` returned a melting point of 191 to 194 °C.

Consider `NS(=O)(=O)c1cc(C(=O)c2cc3ccccc3o2)ccc1Cl`, for which the melting point was in the range of 167 to 170 °C.

Consider `CC1(C)C=C(n2cc(C#N)c3ccccc32)c2cc(C#N)ccc2O1`, for which the melting point is 192 to 193 °C.

For `CCCCCCCCCN(O)C(=O)N(C)C`, the melting point fell in the range of 39 to 40 °C.

In turn, `CC(C)(C)OC(=O)CN(O)CC(=O)OC(C)(C)C` had a melting point of 73 to 76 °C.

On to `Fc1cc(-c2ccc3nnn(Cc4ccc5ncccc5c4)c3n2)ccc1OC1CCOCC1`, for which the melting point is 165 to 167 °C.

Regarding `CC(C)(S)[C@@H]1C[C@H](CS)C(=O)N1` (relative stereo), the melting point was in the range of 159 to 161 °C.

For `CCC12CCC(NC(=O)C=CC(=O)OC)C3Oc4c(O)ccc5c4C31CCN(CC1CC1)C2C5` (stereo unspecified), the melting point lay in the range of 233 to 236 °C.

As for `Cc1cc(COc2ccc(F)c(C(N)=O)c2F)ccn1`, the melting point lay within 185 to 186 °C.

Consider `COc1ccc(CN2C(=O)[C@H](N3C(=O)c4ccccc4C3=O)[C@@H]2C(=O)OCc2ccccc2)c(OC)c1` (relative stereo), for which the melting point is 198 to 200 °C.

In turn, `CN(c1cccc2cc(C3=NCC(C)(CN)S3)[nH]c12)S(=O)(=O)c1cccs1` (stereo unspecified) displayed a melting point of 164 to 165 °C.

In turn, `COc1cc(C)nc(C#N)n1` displayed a melting point of 80 to 85 °C.

In turn, `Cc1ncccc1C(C#N)N1CCN(C(=O)CC(NC(=O)c2ccc(OCc3ccc4ccccc4n3)cc2)c2ccccc2)CC1` (stereo unspecified) returned a melting point of 104 to 110 °C.

As for `CCn1c(=O)c(C)cc2cnc(SC)nc21`, the melting point was in the range of 84 to 86 °C.
